What was measured:
Assay in all cases: normalised response (% of control), CellTiter-Glo; higher = more viable cells (100 = DMSO, 0 = benzethonium chloride kill control)
Settings in all cases: incubation time: 72 h
[1] = system: CAL-85-1
In short: (§1)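 After 72 h with compound in 384-well plates, breast cancer cell lines seeded as 20 µl suspension were read for CellTox Green fluorescence at 485/520 nm. CellTiter-Glo luminescence was then read after 10 min at room temperature. Compound was present at 5 concentrations in 10-fold steps over a 10,000-fold range set per compound, and plates were normalised to 0.1 % DMSO (100) and a positive kill control (0). Values are normalised signals, each at a single concentration.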

[2] = system: MFM-223
In short: as §1

[3] = system: MCF-10A
In short: as §1

[4] = system: HDQ-P1
In short: as §1

[5] = system: HCC1937
In short: as §1

[6] = system: DU-4475
In short: as §1

[7] = system: MDA-MB-468
In short: as §1

[8] = system: HCC1143
In short: as §1

[9] = system: CAL-148
In short: as §1

[10] = system: CAL-120
In short: as §1

[11] = system: MDA-MB-453
In short: as §1

[12] = system: Hs578T
In short: as §1

[13] = system: CAL-51
In short: as §1

[14] = system: HCC1599
In short: as §1

| SMILES | normalised response [1] [%] | normalised response [2] [%] | normalised response [3] [%] | normalised response [4] [%] | normalised response [5] [%] | normalised response [6] [%] | normalised response [7] [%] | normalised response [8] [%] | normalised response [9] [%] | normalised response [10] [%] | normalised response [11] [%] | normalised response [12] [%] | normalised response [13] [%] | normalised response [14] [%] |
| --- | --- | --- | --- | --- | --- | --- | --- | --- | --- | --- | --- | --- | --- | --- |
| Cn1c(CCCC(=O)O)nc2cc(N(CCCl)CCCl)ccc21 [Bendamustine] (1000 nM) | 101 | 111 | 96.9 | 102 | 95.7 | 101 | 117 | 106 | 110 | 104 | 117 | 106 | 112 | 105 |
| CC1(C)NC(=O)N(c2ccc([N+](=O)[O-])c(C(F)(F)F)c2)C1=O [Nilutamide] (1000 nM) | 98.5 | 107 | 111 | 97.7 | 103 | 105 | 119 | 101 | 109 | 102 | 102 | 113 | 82.4 | 110 |
| C#Cc1cccc(Nc2ncnc3cc(OCCOC)c(OCCOC)cc23)c1 [Erlotinib] (1000 nM) | 60.2 | 100 | 37.1 | 69.3 | 93.4 | 104 | 82.9 | 94.7 | 82.1 | 93.5 | 107 | 99.8 | 80.3 | 100 |
| Clc1ccc(Nc2nnc(Cc3ccncc3)c3ccccc23)cc1 [Vatalanib] (1000 nM) | 97.7 | 104 | 103 | 109 | 103 | 106 | 103 | 97 | 98.7 | 99.2 | 95.4 | 100 | 94.4 | 124 |
| CN(N=O)C(=O)N[C@@H](C=O)[C@@H](O)[C@H](O)[C@H](O)CO [Streptozocin] (1000 nM) | 104 | 103 | 109 | 107 | 108 | 100 | 104 | 112 | 100 | 105 | 109 | 109 | 107 | 107 |
| CO[C@H]1/C=C\C=C(/C)C(=O)NC2=CC(=O)C(NCCN(C)C)=C(C[C@@H](C)C[C@H](OC)[C@H](O)[C@@H](C)/C=C(\C)[C@@H]1OC(N)=O)C2=O [Alvespimycin] (100 nM) | 23 | 39.9 | 13.5 | 31.3 | 36.5 | 0.07 | 39.6 | 35.4 | 23.9 | 52 | 25.8 | 41.8 | 26.7 | 76.9 |
| COc1cc([C@@H]2c3cc4c(cc3[C@@H](O[C@@H]3O[C@@H]5CO[C@@H](C)O[C@H]5[C@H](O)[C@H]3O)[C@H]3COC(=O)[C@H]23)OCO4)cc(OC)c1O [Etoposide] (1000 nM) | 101 | 114 | 99.8 | 97.6 | 94 | 56.8 | 87.3 | 86.2 | 69 | 93.3 | 153 | 91 | 65.7 | 63.5 |
| Cn1c(Nc2ccc(C(F)(F)F)cc2)nc2cc(Oc3ccnc(-c4ncc(C(F)(F)F)[nH]4)c3)ccc21 [RAF265] (100 nM) | 98.5 | 96.5 | 91.4 | 75 | 91.6 | 95.3 | 85.5 | 95.9 | 97.1 | 82.9 | 110 | 82.5 | 77.8 | 120 |
| CN[C@@H]1C[C@H]2O[C@@](C)([C@@H]1OC)n1c3ccccc3c3c4c(c5c6ccccc6n2c5c31)C(=O)N[C@H]4O [UCN-01] (1000 nM) | 23.2 | 30.2 | 1.2 | 18.8 | 32 | 7.33 | 5.24 | 17.3 | 75.2 | 20.5 | 34 | 11.7 | 11.8 | 8.97 |
| C=C(c1ccc(C(=O)O)cc1)c1cc2c(cc1C)C(C)(C)CCC2(C)C [Bexarotene] (1000 nM) | 102 | 102 | 81.8 | 104 | 102 | 103 | 103 | 102 | 86.4 | 104 | 103 | 94.9 | 111 | 57.6 |
| CN(C)/N=N/c1[nH]cnc1C(N)=O [Dacarbazine] (1000 nM) | 100 | 105 | 104 | 95.4 | 101 | 101 | 117 | 103 | 97.8 | 96 | 104 | 105 | 91.2 | 111 |

— the supplement of paper PMC4862054
